How the values were obtained:
[1] = system: acute mania in adolescents with bipolar disorder; test: double-blind, randomized, placebo-controlled study as adjunctive treatment to divalproex for adolescent mania (Examples 7 and 8); format: in vivo, human
[2] = system: acute manic or mixed bipolar episodes; details: cotherapy vs monotherapy
[3] = DVP + about 10 mg/day, 6 weeks, vs DVP+placebo

O=C1CCc2ccc(OCCCCN3CCN(c4cccc(Cl)c4Cl)CC3)cc2N1 [aripiprazole, 7-{4-[4-(2,3-dichlorophenyl)-1-piperazinyl]butoxy}-3,4-dihydro-2(1H)-quinolinone]
YMRS response rate [1, 3]: significantly greater | reduction in YMRS scores from baseline to endpoint [1, 3]: greater reduction | Sedation, rated as mild or moderate ([1]; DVP combination vs DVP+placebo): more common | safety measures, group differences from baseline to endpoint ([1]; DVP combination vs DVP+placebo): No significant group differences | tolerability in combination with DVP ([1]; treatment of mania): well tolerated | HAMD-21 total scores [2]: total scores more than monotherapy

Reference: patent US9125939B2, “Carbostyril derivatives and mood stabilizers for treating mood disorders” (Otsuka Pharmaceutical Co., Ltd., priority 2003, dated 2015)
